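Following 48 hours of exposure in 96-well plates, responses at five concentrations were used to interpolate endpoints linearly. Here, GI50 denotes the concentration required for 50% inhibition of growth.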 Activity calls are given as the source filed them. Rule as the data show it: active = GI50 up to about 1.1 µM and inactive = higher.
Legend:
Experiment in all cases: DTP human tumour cell line panel, 48 h
[1] = system: NCI-H23
[2] = system: K562
[3] = system: Hs-578T
[4] = system: SK-OV-3
[5] = system: HL-60
[6] = system: HOP-62
[7] = system: KM12
[8] = system: MDA-MB-435
[9] = system: T47D
[10] = system: RXF 393
[11] = system: NCI-H460
[12] = system: SNB-19
[13] = system: NCI/ADR-RES
[14] = system: A498
[15] = system: UACC-257
[16] = system: OVCAR-4
[17] = system: SN12C
[18] = system: SK-MEL-28
[19] = system: SW-620
[20] = system: PC-3
[21] = system: HOP-92
[22] = system: CAKI-1
[23] = system: MDA-N
[24] = system: BT-549
[25] = system: HT-29
[26] = system: OVCAR-5
[27] = system: M14
[28] = system: TK-10
[29] = system: SK-MEL-2
[30] = system: DU-145
[31] = system: LOX IMVI
[32] = system: IGROV-1
[33] = system: MCF7
[34] = system: SK-MEL-5
[35] = system: SR
[36] = system: U-251
[37] = system: RPMI-8226
[38] = system: UACC-62
[39] = system: COLO 205
[40] = system: UO-31
[41] = system: SF-295
[42] = system: MOLT-4
[43] = system: HCT-15
[44] = system: HCT-116
[45] = system: Malme-3M
[46] = system: CCRF-CEM
[47] = system: OVCAR-8
[48] = system: NCI-H226
[49] = system: OVCAR-3
[50] = system: SNB-75
[51] = system: MDA-MB-231
[52] = system: HCC 2998
[53] = system: SF-539
[54] = system: 786-0
[55] = system: EKVX
[56] = system: A549
[57] = system: SF-268
[58] = system: NCI-H522
[59] = system: ACHN

Measured: GI50

O=C(N/N=C\c1ccc([N+](=O)[O-])cc1)Nc1ccccc1
inactive: [1] > 100 µM | [2] > 100 µM | [3] > 100 µM | [4] > 100 µM | [5] > 100 µM | [6] > 100 µM | [7] > 100 µM | [8] > 100 µM | [9] > 100 µM | [10] > 100 µM | [11] > 100 µM | [12] > 100 µM | [13] > 100 µM | [14] > 100 µM | [15] > 100 µM | [16] > 100 µM | [17] > 100 µM | [18] > 100 µM | [19] > 100 µM | [20] > 100 µM | [21] > 100 µM | [22] > 100 µM | [23] > 100 µM | [24] > 100 µM | [25] > 100 µM | [26] > 100 µM | [27] > 100 µM | [28] > 100 µM | [29] > 100 µM | [30] > 100 µM | [31] > 10 µM | [32] > 100 µM | [33] > 100 µM | [34] > 100 µM | [35] > 100 µM | [36] > 100 µM | [37] > 100 µM | [38] > 100 µM | [39] > 100 µM | [40] > 100 µM | [41] > 100 µM | [42] > 100 µM | [44] > 100 µM | [45] > 100 µM | [46] > 100 µM | [47] > 100 µM | [48] > 100 µM | [49] > 100 µM | [50] > 100 µM
> 100 µM: [43]

SC1=NNC2(C(Cl)=N1)c1ccccc1-c1ccccc12
> 10 µM: [43]
inactive: [1] > 10 µM | [2] > 10 µM | [3] > 10 µM | [4] > 10 µM | [5] > 10 µM | [51] > 10 µM | [6] > 10 µM | [7] > 10 µM | [9] > 10 µM | [11] > 10 µM | [13] > 10 µM | [14] > 10 µM | [15] > 10 µM | [52] > 10 µM | [16] > 10 µM | [17] > 10 µM | [18] > 10 µM | [19] > 10 µM | [21] > 10 µM | [53] > 10 µM | [22] > 10 µM | [23] > 10 µM | [24] > 10 µM | [54] > 10 µM | [27] > 10 µM | [28] > 10 µM | [30] > 10 µM | [31] > 10 µM | [55] > 10 µM | [56] > 10 µM | [32] > 10 µM | [33] > 10 µM | [34] > 10 µM | [35] > 10 µM | [36] > 10 µM | [37] > 10 µM | [38] > 10 µM | [39] > 10 µM | [40] 6.44 µM | [42] > 10 µM | [45] > 10 µM | [57] > 10 µM | [46] > 10 µM | [47] > 10 µM | [48] > 10 µM | [50] > 10 µM

Nc1ncnc2c1ncn2[C@@H]1C[C@H]1CO
> 100 µM: [43]
inactive: [1] > 100 µM | [2] > 100 µM | [3] > 100 µM | [5] > 100 µM | [51] > 100 µM | [6] > 100 µM | [7] > 100 µM | [8] > 10 µM | [9] > 100 µM | [11] > 100 µM | [12] > 100 µM | [13] > 100 µM | [14] > 100 µM | [15] > 100 µM | [52] > 100 µM | [17] > 100 µM | [19] > 100 µM | [20] > 100 µM | [53] > 100 µM | [23] > 100 µM | [24] > 10 µM | [25] > 100 µM | [54] > 100 µM | [26] > 100 µM | [27] > 100 µM | [58] > 100 µM | [29] > 100 µM | [31] > 100 µM | [55] > 100 µM | [56] > 100 µM | [33] > 100 µM | [35] > 100 µM | [36] > 100 µM | [37] > 100 µM | [40] > 100 µM | [41] > 100 µM | [42] > 100 µM | [59] > 100 µM | [44] > 100 µM | [45] > 100 µM | [46] > 100 µM | [47] > 100 µM | [48] > 100 µM | [49] 42 µM

COc1ccc(C2SCC(=O)N2c2ccc(-n3c(-c4ccccc4)nc4ccccc4c3=O)cc2)cc1OC (stereo not drawn)
> 100 µM: [43]
inactive: [1] > 100 µM | [2] > 100 µM | [3] 99.8 µM | [4] > 100 µM | [5] > 100 µM | [51] > 100 µM | [6] > 100 µM | [7] > 100 µM | [8] > 100 µM | [9] 90.6 µM | [11] > 100 µM | [12] > 100 µM | [13] > 100 µM | [14] > 100 µM | [15] > 100 µM | [52] > 100 µM | [16] > 10 µM | [17] > 100 µM | [18] > 100 µM | [19] > 100 µM | [20] 71.3 µM | [53] > 100 µM | [22] > 100 µM | [23] > 100 µM | [24] > 100 µM | [25] > 100 µM | [54] > 100 µM | [26] > 100 µM | [27] > 100 µM | [28] > 100 µM | [58] 90.6 µM | [29] > 100 µM | [31] > 100 µM | [55] > 100 µM | [56] > 100 µM | [32] > 100 µM | [33] > 100 µM | [34] > 100 µM | [35] > 100 µM | [36] > 100 µM | [37] > 100 µM | [38] 62.1 µM | [39] > 100 µM | [40] 12.9 µM | [41] > 100 µM | [42] 24.5 µM | [59] > 100 µM | [44] > 100 µM | [45] > 100 µM | [57] > 100 µM | [46] > 100 µM | [47] > 100 µM | [48] 31.3 µM | [49] > 100 µM | [50] 3.11 µM

c1ccc2cc3c(cc2c1)nc1ccccn13
inactive: [1] > 100 µM | [2] > 100 µM | [3] 21 µM | [4] 77.3 µM | [5] > 100 µM | [6] > 100 µM | [7] > 100 µM | [8] > 100 µM | [9] > 100 µM | [10] > 100 µM | [12] > 100 µM | [13] > 100 µM | [15] > 100 µM | [52] > 100 µM | [17] > 100 µM | [18] > 100 µM | [19] > 100 µM | [20] > 100 µM | [21] > 100 µM | [53] > 100 µM | [23] > 100 µM | [24] > 100 µM | [54] > 100 µM | [26] > 100 µM | [27] > 100 µM | [28] > 100 µM | [30] > 100 µM | [55] > 100 µM | [56] > 100 µM | [32] > 100 µM | [33] 28.2 µM | [34] > 100 µM | [35] > 100 µM | [36] > 100 µM | [37] > 100 µM | [38] > 100 µM | [39] > 100 µM | [40] > 100 µM | [41] > 100 µM | [42] > 100 µM | [59] > 100 µM | [44] 96.2 µM | [45] > 100 µM | [57] > 100 µM | [46] > 100 µM | [47] > 100 µM | [48] > 100 µM | [49] > 100 µM | [50] > 100 µM
> 100 µM: [43]

From ChEMBL document CHEMBL1201862, “PubChem BioAssay data set” (2004)
